Results: patent US20090011974A1, “Scavenger Receptor B1 (Cla-1) Targeting for the Treatment of Infection, Sepsis and Inflammation” (priority 2002, published 2009)
Where no end group is shown, it is not given here. [ ]: non-standard residue; d: D form.

Key:
[1] = test system: IL-1β; assay: RT-PCR of IL-1β mRNA in RAW cells exposed to LPS preparations; assay type: cell-based, mouse; conditions: inhibitor 20 mM added 2 h before LPS 10 ng/ml, 24 h
Method: (§1) Cell culture and treatment.
(§2) RNA isolation and cDNA preparation. The total RNA of cultured cells is isolated and purified using Trizol reagent (Gibco BRL, Grand Island, N.Y.) according to the manufacturer's protocol. The concentration and quality of RNA were determined by UV absorbance at 260 and 280 nm. To prepare cDNA, total RNA (3 μg) is added to a mixture containing the following: 6 μl of 5× first-strand buffer (75 mM KCl, 50 mM Tris-HCl [pH 8.3], 3 mM MgCl2), 1.5 μl of deoxynucleoside triphosphates (10 mM [each] dATP, dCTP, dTTP, and dGTP), 1.5 μl of 0.0156 U (0.4 μg) of random hexamers, and 0.2 U of Moloney murine leukemia virus reverse transcriptase (all from Gibco BRL, Gaithersburg, Md.); 0.004 U of RNasin (Promega, Madison, Wis.); and RNase-free water to a final volume of 30 μl per 3 μg of cDNA. Samples are incubated at 37° C. for 60 min. Preliminary experiments are undertaken to achieve optimal conditions for amplifying mRNA for each of the gene products.
(§3) Reverse transcription-PCR (RT-PCR). […]
(§4) For the densitometry analysis, the intensities of the bands are measured with the Gel-Pro Analyzer 3.0 computer program and normalized with GADPH intensity.

[2] = test system: ABCA1; assay: RT-PCR of ABCA1 mRNA in RAW cells exposed to LPS preparations; assay type: cell-based, mouse; conditions: inhibitor 20 mM added 2 h before LPS 10 ng/ml, 24 h
Method: as §1, §2, §3, §4

[3] = test system: SR-BI/CLA-1; assay type: cell-based, mouse; conditions: 24 h
Method: as §1, §2
Reverse transcription-PCR (RT-PCR). A mixture of 37.2 μl of RNase-free water, 5 μl of 10× reaction buffer, and 0.5 μl (5 U) of AmpliTaq Gold DNA polymerase (Applied Biosystems, Roche Molecular Systems, Inc., Branchburg, N.J.), sense and antisense primers (1 μl each), and 0.3 μl (3 μCi) of [α-^32P]dCTP (Amersham Pharmacia Biotech, San Diego, Calif.) is vortexed, and 46 μl is aliquoted into each tube, containing 4 μl of cDNA, and overlaid with 50 μl of mineral oil (Sigma Chemical Co.). cDNA is amplified in a Perkin-Elmer (Norwalk, Conn.) System 2400 DNA thermal cycler, with denaturation for 1 min at 94° C., annealing for 1 min at 50° C., and extension for 2 min at 72° C. for GADPH (glyceraldehyde-3-phosphate dehydrogenase) (19 cycles), ABCA1 (28 cycles), SR-BI/CLA-1, and interleukin-1 [3 (IL-1β (27 cycles). The primers used in these analyses are as follows: GADPH, (SEQ ID NO:1) 5′-[…]-3′ and (SEQ ID NO:2) 5′-[…]-3′; SR-BI/CLA-1, (SEQ ID NO:3) 5′-CCA […] GGC TTC TGC-3′ and (SEQ ID NO:4) 5′-CTG AAT GGC CTC CTT ATC C-3′; ABCA1, (SEQ ID NO:5) 5′-CAACTACAAAGCCCTCTTTG-3′ and (SEQ ID NO:6) 5′-CTTGGCTGTTCTCCATGAAG-3′; and IL-1β, (SEQ ID NO:7) 5′-CTG AAA GCT CTC CAC CTC-3′ and (SEQ ID NO:8) 5′-GTG CTG ATG TAC CAG TTG-3′.
as §4

[4] = Limulus amebocyte lysate (LAL) assay for LPS incubated with peptides; conditions: RPMI-1640 1% FCS or DPBS; 10 ng/ml LPS, 10 μg/ml peptide, 37° C., 24 h
Excerpt: Limulus Amebocyte Lysate (LAL) Assay for LPS.
Limulus amebocyte lysate (LAL) assay for LPS.

[5] = test system: THP-1 cells; assay: TNFα-induced IL-6 and IL-8 secretion in THP-1 cells; assay type: cell-based, human
Excerpt: (§5) Assays for cytokines and lactate dehydrogenase (LD).

[6] = test system: THP-1 cells; assay: LTA, Gro-EL and HSP60 stimulated IL-8/IL-6 production in THP-1 cells; assay type: cell-based, human; conditions: 1 μg/ml LTA or Gro-EL, 10-200 fold excess of peptide
Method: (§6) THP-1 and CLA-1 overexpressing HeLa cells. Human monocyte-macrophages, THP-1 (ATCC [American Type Culture Collection] TIB 71), are grown in 48-well plates in RPMI 1640 medium supplemented with 10% fetal calf serum (FCS), penicillin (100 U/ml), and streptomycin (100 μg/ml). All experiments involving LPS-induced interleukin production utilize the same media except that 1% FCS was used. Hela cells were cultured as previously reported (Vishnyakova, T. G. et al. (2003) “BINDING AND INTERNALIZATION OF LIPOPOLY[…] CLA-1, A HUMAN ORTHOLOGUE OF RODENT […] RECEPTOR B1,” J. Biol. Chem 278:22771-22780).
as §5

[7] = test system: THP-1 cells; assay: LPS-stimulated cytokine production in THP-1 cells (ELISA); assay type: cell-based, human; conditions: 10 ng/ml LPS, 24 h
Method: as §6
Assays for cytokines and lactate dehydrogenase (LD). […]

[8] = target: T1, CLA-1 (Homo sapiens, UniProt Q8WTV0); assay type: binding
T1 construct: using the expression plasmid pTRE2 (Clontech, Pal Alto, Calif.), encoding a CLA-1 protein (pTRE2-CLA-1); expressed in transfected cells; host or cells: HeLa (Tet-off) cells (Clontech), stably co-transfected with pTRE2-CLA-1 and pTK-Hyg and selected with hygromycin
T1 sequence (Q8WTV0 1-509 isoform Q8WTV0-2): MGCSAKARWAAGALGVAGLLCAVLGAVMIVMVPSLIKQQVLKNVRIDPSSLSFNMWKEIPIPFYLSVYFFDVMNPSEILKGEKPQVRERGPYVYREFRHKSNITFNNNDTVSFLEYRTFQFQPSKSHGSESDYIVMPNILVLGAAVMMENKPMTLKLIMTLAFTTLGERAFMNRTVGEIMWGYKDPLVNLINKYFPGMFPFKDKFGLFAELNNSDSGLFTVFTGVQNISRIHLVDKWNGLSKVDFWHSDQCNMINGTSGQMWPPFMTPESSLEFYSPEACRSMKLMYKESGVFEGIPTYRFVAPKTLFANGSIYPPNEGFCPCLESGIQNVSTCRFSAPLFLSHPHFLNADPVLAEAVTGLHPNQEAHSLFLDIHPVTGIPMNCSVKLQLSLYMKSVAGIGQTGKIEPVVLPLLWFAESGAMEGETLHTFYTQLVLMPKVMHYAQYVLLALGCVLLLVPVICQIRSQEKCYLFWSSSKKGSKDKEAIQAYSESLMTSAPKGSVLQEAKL
Method: The lipopolysaccharide 0111:B4 (Sigma) is iodinated as reported by Ulevitch, R J. (1978) (“THE PREPARATION AND CHARACTERIZATION OF A RADIO IODINATED BACTERIAL LIPOPOLYSACCHARIDE,” Immunochemistry 15:157-164). […] After a 2-hr-incubation on ice, the cells are rinsed with ice-cold HBSS and utilized for radioactivity measurements as reported by Bocharov, A. V. et al. (2001) (“CHARACTERIZATION OF A 95 KDA HIGH AFFINITY HUMAN HIGH DENSITY LIPOPROTEIN-BINDING PROTEIN,” Biochemistry 40:4407-4416). Specific binding is determined as the difference between total and non-specific binding, and normalized by protein content.
HeLa cells grown until 70% confluence in DMEM with 10% FCS are washed with PBS and cultured for 24 hr in serum-free DMEM. […] After washing with ice-cold PBS, the cells are hydrolyzed in 1 N NaOH. Radioactivity is counted in an LKB Wallac Ultragamma counter.

[9] = test system: SR-BI/CLA-1; assay: Competition for 125I-HDL binding sites in RAW cells; parameters: species or system mouse; conditions: 50 μg/ml LPS analogs
Method: Competition Binding Experiments. RAW cells are cultured for 24 hr in serum free DMEM before experiment. […] Cell radioactivity is measured as described in the “LPS-binding assay” section.

Cc1ccc(S(=O)(=O)N[C@@H](Cc2ccccc2)C(=O)CCl)cc1 [TPCK, tosylphenyl chloromethyl ketone]
effect on LPS-induced increase of IL-1β mRNA [1]: effectively prevented
effect on LPS-induced ABCA1 mRNA level decrease [2]: effectively prevented
effect on LPS-induced SR-BI/CLA-1 mRNA level decrease ([3]; inhibitor 20 mM added 2 h before LPS 10 ng/ml): effectively prevented

DWLKAFYDKVAEKLKEAF-P-DWLKAFYDKVAEKLKEAF [D-37PA] ([dD][dW][dL][dK][dA][dF][dY][dD][dK][dV][dA][dE][dK][dL][dK][dE][dA][dF][dP][dD][dW][dL][dK][dA][dF][dY][dD][dK][dV][dA][dE][dK][dL][dK][dE][dA][dF]) [Peptide D-37PA]
effect on LAL activity of LPS in media containing bivalent cations [4]: neither L-37PA nor D-37PA affected LPS's endotoxin activity
effect on TNFα-induced IL-6 and IL-8 production [5]: neither peptides was effective in blocking
effect on LTA and Gro-EL stimulated IL-8 and IL-6 production [6]: similarly effective in blocking
effect on LPS-stimulated cytokine (IL-8, IL-6, TNF-α) production [7]: similarly effective in a blocking
competition against 125I-LPS ([8]; 1 μg/ml 125I-LPS, mock transfected and CLA-1 overexpressing HeLa cells): competed in a dose-dependent manner

diphosphoryllipid A [DPLA]
decrease of 125I-HDL-binding by forms of LPS [9]: similarly decreased
activity as modulator of SR-BI, ABCA1 and IL-1β gene expression compared with other LPS preparations ([3]; 10 ng/ml, RAW cells): the same activity as the complete form of LPS from E. coli
relative activities for the suppressive effect on SR-BI/CLA-1 and ABCA1 expression and SR-BI/CLA-1 protein expression ([3]; 10 ng/ml, RAW cells): LPS (Re595)>LPS (0111:B4)>DPLA>MPLA
competition of unlabelled ligands against 125I-LPS (0111:B4) ([8]; 100× excess unlabeled ligand, CLA-1 overexpressing and mock-transfected cells): compete against iodinated LPS in both cell lines
